The target in assay [1] is T1, human H4 receptor (Homo sapiens, UniProt Q9H3N8). The experiment in a line: biochemical.
The target in assay [2] is T1, human H4 receptor. The experiment in a line: biochemical. The source holds these as a separate data set.

This is an account of results in patent US9255101B2 (BIOPROJECT, priority 2012, dated 2016).

The IC50 is the concentration that gives 50% inhibition. A high value points to lower potency. The term Ki denotes the equilibrium dissociation constant of an inhibitor or competing ligand from its target. Low readings indicate tighter binding, high ones weaker binding.

Where a name gives a salt, the structure may show the parent alone.
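Throughout, for IC50: membranes from SH-SY5Y cells with stable human H4 receptor expression, incubated with GDP 10 µM, radioactivity retained on filters counted by liquid scintillation.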
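Throughout, for Ki: radioligand displacement of a [3H]-labelled ligand from membranes of CHO cells stably expressing human H4 receptor, bound radioactivity counted on filters by liquid scintillation.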

T1 sequence (Q9H3N8 whole entry): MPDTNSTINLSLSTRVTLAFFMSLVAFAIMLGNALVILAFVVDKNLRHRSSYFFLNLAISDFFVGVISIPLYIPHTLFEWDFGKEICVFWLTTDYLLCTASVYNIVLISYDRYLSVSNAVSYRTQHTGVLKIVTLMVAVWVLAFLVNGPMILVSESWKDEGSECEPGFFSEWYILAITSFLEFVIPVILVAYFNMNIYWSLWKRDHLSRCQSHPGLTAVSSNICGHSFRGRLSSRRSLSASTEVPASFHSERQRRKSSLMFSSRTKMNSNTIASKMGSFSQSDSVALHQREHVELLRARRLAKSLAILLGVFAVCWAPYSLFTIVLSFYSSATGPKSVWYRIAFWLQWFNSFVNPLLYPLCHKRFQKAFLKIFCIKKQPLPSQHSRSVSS

On to `C=C(C)Cc1cn2c(n1)C(OC1CCN(C)CC1)c1ccccc1CC2` (stereo not drawn) [Example 70, 2-(2-methyl-allyl)-4-(1-methylpiperidin-4-yloxy)-9,10-dihydro-4H-3,10a-diaza-benzo[f]azulene oxalate], for which the IC50 in assay [1] was < 300 nM. The Ki in assay [2] was < 300 nM.

Regarding `CN1CCC(OC2c3ccccc3CCn3cc(C#CCNC(=O)OC(C)(C)C)nc32)CC1` (stereo not drawn) [Example 72, {3-[4-(1-methylpiperidin-4-yloxy)-9,10-dihydro-4H-3,10a-diaza-benzo[f]azulen-2-yl]-prop-2-ynyl}-carbamic acid tert-butyl ester], in assay [1], the IC50 is < 30 nM. Also, the Ki in assay [2] is < 30 nM.

In the case of `CN1CCC(OC2c3ccccc3CCn3cc(C4=CCN(C(=O)OC(C)(C)C)CC4)nc32)CC1` (stereo not drawn) [Example 74, 4-[4-(1-methylpiperidin-4-yloxy)-9,10-dihydro-4H-3,10a-diaza-benzo[f]azulen-2-yl]-3,6-dihydro-2H-pyridine-1-carboxylic acid tert-butyl ester oxalate], the IC50 in assay [1] was < 300 nM. For the same compound, in assay [2], the Ki is < 300 nM.

Regarding `Cc1ccc(-c2cn3c(n2)C(OC2CCN(C)CC2)c2ccccc2CC3)c(Cl)c1` (stereo not drawn) [Example 75, 2-(2-chloro-4-methylphenyl)-4-(1-methylpiperidin-4-yloxy)-9,10-dihydro-4H-3,10a-diaza-benzo[f]azulene oxalate], the IC50 in assay [1] was < 30 nM. Besides, the Ki in assay [2] was < 300 nM.

Turning to `CN1CCC(OC2c3ccccc3CCn3cc(C=CCc4ccccc4)nc32)CC1` (stereo not drawn) [Example 76, 4-(1-methylpiperidin-4-yloxy)-2-(3-phenylpropenyl)-9,10-dihydro-4H-3,10a-diaza-benzo[f]azulene oxalate], the IC50 in assay [1] was < 300 nM. Moreover, the Ki in assay [2] is < 30 nM.

Turning to `CN1CCC(OC2c3ccccc3CCn3cc(-c4cccc(Cl)c4)nc32)CC1` (stereo not drawn) [Example 77, 2-(3-chlorophenyl)-4-(1-methylpiperidin-4-yloxy)-9,10-dihydro-4H-3,10a-diaza-benzo[f]azulene oxalate], in assay [1], the IC50 is < 300 nM. The Ki in assay [2] was < 30 nM.

As for `CN1CCC(OC2c3cccc(Br)c3CCn3cc(I)nc32)CC1` (stereo not drawn) [Example 79, 8-bromo-2-iodo-4-(1-methylpiperidin-4-yloxy)-9,10-dihydro-4H-3,10a-diaza-benzo[f]azulene], the half-inhibitory concentration (IC50) in assay [1] is < 1000 nM. Besides, the Ki in assay [2] was < 300 nM.

As for `CN1CCC(OC2c3ccccc3CCn3cc(C4=CCCCCC4)nc32)CC1` (stereo not drawn) [Example 80, 2-cyclohept-1-enyl-4-(1-methylpiperidin-4-yloxy)-9,10-dihydro-4H-3,10a-diaza-benzo[f]azulene], the IC50 in assay [1] was < 300 nM. Moreover, in assay [2], the Ki is < 30 nM.

For `Cc1ccc(-c2cn3c(n2)C(OC2CCN(C)CC2)c2ccccc2CC3)c(F)c1` (stereo not drawn) [Example 82, 2-(2-fluoro-4-methylphenyl)-4-(1-methylpiperidin-4-yloxy)-9,10-dihydro-4H-3,10a-diaza-benzo[f]azulene], the IC50 in assay [1] is < 30 nM. The Ki in assay [2] is < 300 nM.

`CN1CCC(OC2c3ccccc3CCn3cc(SC4CCCC4)nc32)CC1` (stereo not drawn) [Example 86, 2-cyclopentylsulfanyl-4-(1-methylpiperidin-4-yloxy)-9,10-dihydro-4H-3,10a-diaza-benzo[f]azulene oxalate]: in assay [1], the IC50 was < 30 nM. Further, in assay [2], the Ki is < 300 nM.

Take `CN1CCC(OC2c3ccccc3CCn3cc(CCCc4ccccc4)nc32)CC1` (stereo not drawn) [Example 87, 4-(1-methylpiperidin-4-yloxy)-2-(3-phenylpropyl)-9,10-dihydro-4H-3,10a-diaza-benzo[f]azulene oxalate]: the IC50 in assay [1] was < 30 nM. Also, the Ki in assay [2] is < 30 nM.

As to `CN1CCC(OC2c3ccccc3CCn3cc(SCc4cccs4)nc32)CC1` (stereo not drawn) [Example 88, 4-(1-methylpiperidin-4-yloxy)-2-(thiophen-2-ylmethylsulfanyl)-9,10-dihydro-4H-3,10a-diaza-benzo[f]azulene oxalate], the IC50 in assay [1] was < 1000 nM. Moreover, the Ki in assay [2] was < 300 nM.
